Results as given in patent publication US20260049075A1, “CYTOTOXIC IMIDAZO[1,2-A]PYRIDINE COMPOUNDS AND THEIR USE IN THERAPY” (MyricX Pharma Limited, priority 2022, published 2026).

Tests used:
DOHH-2 tumor cells = test: Subcutaneous xenograft DOHH-2 Lymphoma Model; assay type: in vivo, mouse; settings: CB17/SCID mice
Procedure: The in vivo efficacy of certain Example compounds was assessed in a subcutaneous xenograft DOHH-2 Lymphoma Model using 10 female 6-8 week old CB17/SCID Mice. Each mouse was inoculated subcutaneously at the right front region with DOHH-2 tumor cells (5×10^6) in 0.1 ml of PBS mixed with matrigel (1:1 PBS:matrigel) for tumor development. The test compound administration started once the mean tumor size reached approximately 100-150 mm^3. Compounds were administered either IP (vehicle 10 mM sodium phosphate+0.2% Tween-80 (pH7.4) or orally (vehicle 15 Na2HPO4 buffer (10 mM) (pH 4.5)+0.2% tween 80). Tumor volumes were measured in two dimensions using a caliper, and the volume expressed in mm^3 using the formula: V=(L×W×W)/2, where V is tumor volume, L is tumor length (the longest tumor dimension) and W is tumor width (the longest tumor dimension perpendicular to L). Mice were dosed with Example 21 orally (12.5 or 25 mg/kg) once a day for 9 consecutive days (FIG. 3). Example 5 was dosed intraperitoneally (7 or 20 mg/kg) in a cycle consisting of administration QD for three days followed by a three day no-dosing period followed by QD dosing for a further three days (FIG. 4). Example 12 was dosed intraperitoneally (0.7 or 2 mg/kg) in a cycle consisting of administration QD for three days followed by a three day no-dosing period followed by QD dosing for a further three days (FIG. 5). In a separate study Example 12 was dosed at […] in a cycle consisting of administration QD for two days followed by either four or six day no-dosing period, and this cycle was repeated three times (FIG. 6).
The protocol and any amendment(s) or procedures involving the care and use of animals in this study were reviewed and approved by the Institutional Animal Care and Use Committee (IACUC) of CrownBio prior to execution. During the study, the care and use of animals was conducted in accordance with the regulations of the Association for Assessment and Accreditation of Laboratory Animal Care (AAALAC).

human NMT1 (HsNMT1) = biological target: T1, human NMT1 (HsNMT1) (Homo sapiens, UniProt P30419); test: HsNMT1 sensitive fluorescence-based assay (CoA detection with CPM); assay type: biochemical
T1 sequence (P30419 1-496): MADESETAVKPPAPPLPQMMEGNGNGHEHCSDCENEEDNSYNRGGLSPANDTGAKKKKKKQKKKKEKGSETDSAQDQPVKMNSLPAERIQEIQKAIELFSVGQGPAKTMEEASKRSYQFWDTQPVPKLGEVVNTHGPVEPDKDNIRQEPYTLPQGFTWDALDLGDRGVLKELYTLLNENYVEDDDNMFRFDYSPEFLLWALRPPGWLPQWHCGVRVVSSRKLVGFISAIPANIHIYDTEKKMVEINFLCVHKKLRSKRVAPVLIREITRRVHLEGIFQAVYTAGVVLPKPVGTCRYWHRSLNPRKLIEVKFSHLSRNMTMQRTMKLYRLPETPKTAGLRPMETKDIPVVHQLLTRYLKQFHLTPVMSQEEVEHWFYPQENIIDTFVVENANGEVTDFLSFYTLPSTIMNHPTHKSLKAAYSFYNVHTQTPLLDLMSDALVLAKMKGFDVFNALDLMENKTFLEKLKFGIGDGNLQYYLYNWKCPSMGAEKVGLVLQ

LNCaP tumour cells = test: LNCaP prostate cancer xenograft model, tumour volume; assay type: in vivo, mouse; settings: for Day 28 tumour volume (mm^3, mean ± SEM) / Tumour growth inhibition (TGI, %): IV, Q7D (x3); for Day 28 tumour volume (mm^3, mean ± SEM): NOD SCID mice; for Tumour growth inhibition (TGI, %): day 28
Text: A total of 84 male NOD SCID mice aged 5-8 weeks and weighing 25-30 g were used for the study.

VcaP tumour cells = test: VcaP prostate cancer xenograft model, tumour volume; assay type: in vivo, mouse; settings: for ΔTGI (Study Day 17): CB17/SCID mice
Text: All mice received two doses of test agent, on Study Day 1 and Study Day 8. The study was terminated on Study Day 30.

[1] = tested on: BT474 breast cancer cells; test: Orthotopic breast cancer xenograft model (BT474), tumour volume; assay type: in vivo, mouse; settings: 2.0 mg/kg IV, 2 days dosing then 5 day holiday; stopped at day 13
Procedure: NOD/SCID mice were implanted with estrogen pellets (17β-estradiol, 60 day release, 0.36 mg) subcutaneously in the right flank one day before the tumour inoculation. On day −8 each mouse was then injected in the right mammary fat pad with 1×10^7 viable BT474 breast cancer cells resuspended in 0.2 mL of Phosphate Buffered Saline mixed with matrigel (1:1). Mice were assigned to treatment groups when tumour volumes averaged 149.78 mm^3 on study day 0. […] The study was terminated on Study Day 35. […] Each group was comprised of 10 mice. Tumour volumes in mice were measured three times per week and tumour volume was calculated using the formula 0.5 (L×W^2). […] Statistical analyses were carried out on tumour readings for Groups 1, 2, 3, 4 and 5 up to Study Day 23 (after this point >50% of the animals within one of the study groups were lost; Group 2) using two-way ANOVA, or a Mixed-Effects model was fitted when values were missing from groups (PRISM GraphPad Software Inc.). Statistical analysis of Group 6 was conducted until day 12 (at this point the study was terminated due to the significant loss of observed body weight). Using a ROUT outlier analysis in GraphPad Prism, one mouse in Group 5 was identified as an outlier across all timepoints (at the 5% confidence level) and has therefore been excluded from analysis. […]

[2] = Body weight in BT474 xenograft study; assay type: in vivo, mouse; settings: 2 mg/kg IV, 2 days dosing then 5 day holiday; terminated early
Procedure: During the study, body weights were measured three times weekly for all animals. Animals were given Diet Gel for the entire duration on the study.

JIMT-1 tumour cells = test: JIMT-1 breast cancer xenograft model, tumour volume; assay type: in vivo, mouse
Procedure: 80 mice were assigned to 8 treatment groups when tumour volumes averaged ˜160.66 mm^3 on Study Day 0. Dosing commenced the following day and all animals were dosed intravenously with ADC Example 3, sacituzumab govitecan or unconjugated sacituzumab. The study was terminated on the Study Day 60.

[3] = intraperitoneal dosing, Example 5 7 or 20 mg/kg, Example 12 0.7 or 2 mg/kg, QD cycles

CNCc1cnc2ccc(-c3ccc(F)c(F)c3OCCc3c(C(C)O)nn(C)c3C)cn12 (stereo not shown) [Example 5, 1-{4-[2-(2,3-difluoro-6-{3-[(methylamino)methyl]imidazo[1,2-a]pyridin-6-yl}phenoxy)ethyl]-1,5-dimethyl-1H-pyrazol-3-yl}ethan-1-ol]
tumour volume compared to vehicle (DOHH-2 tumor cells; [3]): significant reduction in tumour volume or reduced growth in tumour volume
IC50 (human NMT1 (HsNMT1)): 2.2 nM

Cc1c(CCOc2c(-c3ccc4ncc(CN)n4c3)ccc(F)c2F)c(C(C)(C)O)nn1C [Example 20, 2-[4-(2-{6-[3-(aminomethyl)imidazo[1,2-a]pyridin-6-yl]-2,3-difluorophenoxy}ethyl)-1,5-dimethyl-1H-pyrazol-3-yl]propan-2-ol]
IC50 (human NMT1 (HsNMT1)): 2 nM

CNCc1cnc2ccc(-c3ccc(F)c(F)c3OCCc3c(C(O)C(C)C)nn(C)c3C)cn12 (stereo not shown) [Example 25, 1-{4-[2-(2,3-difluoro-6-{3-[(methylamino)methyl]imidazo[1,2-a]pyridin-6-yl}phenoxy)ethyl]-1,5-dimethyl-1H-pyrazol-3-yl}-2-methylpropan-1-ol]
IC50 (human NMT1 (HsNMT1)): 2 nM

Cc1c(CCOc2cc(F)ccc2-c2ccc3ncc(CCN)n3c2)c(C(C)O)nn1C (stereo not shown) [Example 7, 1-(4-(2-(2-(3-(2-aminoethyl)imidazo[1,2-a]pyridin-6-yl)-5-fluorophenoxy)ethyl)-1,5-dimethyl-1H-pyrazol-3-yl)ethan-1-ol]
IC50 (human NMT1 (HsNMT1)): 9 nM

CNCc1cnc2ccc(-c3ccc(F)cc3OCCc3c(C(C)O)nn(C)c3C)cn12 (stereo not shown) [Example 1, 1-{4-[2-(5-fluoro-2-{3-[(methylamino)methyl]imidazo[1,2-a]pyridin-6-yl}phenoxy)ethyl]-1,5-dimethyl-1H-pyrazol-3-yl}ethan-1-ol]
IC50 (human NMT1 (HsNMT1)): 2.2 nM

CNCc1cnc2ccc(-c3ccc(F)c(F)c3OCCc3c(C(C)(C)O)nn(C)c3C)cn12 [Example 21, 2-(4-(2-(2,3-difluoro-6-(3-((methylamino)methyl)imidazo[1,2-a]pyridin-6-yl)phenoxy)ethyl)-1,5-dimethyl-1H-pyrazol-3-yl)propan-2-ol]
tumour volume compared to vehicle (DOHH-2 tumor cells; oral dosing 12.5 or 25 mg/kg once a day for 9 days): significant reduction in tumour volume or reduced growth in tumour volume

CCNCc1cnc2ccc(-c3ccc(F)cc3OCCc3c(C(C)(C)O)nn(C)c3C)cn12 [Example 22, 2-{4-[2-(2-{3-[(ethylamino)methyl]imidazo[1,2-a]pyridin-6-yl}-5-fluorophenoxy)ethyl]-1,5-dimethyl-1H-pyrazol-3-yl}propan-2-ol]
IC50 (human NMT1 (HsNMT1)): 3 nM

ifinatamab: antibody binding CD276 (B7-H3); heavy chain SEQ ID NO: 6, light chain SEQ ID NO: 5
effect on LNCaP tumour volume compared to vehicle (LNCaP tumour cells; 5 mg/kg): no significant effect
Day 28 tumour volume (mm^3, mean ± SEM) (LNCaP tumour cells; 5 mg/kg): 551.4 ± 73.1 mm^3
Tumour growth inhibition (TGI, %) (LNCaP tumour cells; 5 mg/kg): 30.6%
effect on LNCaP tumour volume compared to vehicle (LNCaP tumour cells; 10 mg/kg): no significant effect
Day 28 tumour volume (mm^3, mean ± SEM) (LNCaP tumour cells; 10 mg/kg): 666.56 ± 103.2 mm^3
Tumour growth inhibition (TGI, %) (LNCaP tumour cells; 10 mg/kg): 13.0%
tumour volume compared to vehicle alone (VcaP tumour cells; 2.5 mg/kg): no significant difference
ΔTGI (Study Day 17) (VcaP tumour cells; 2.5 mg/kg IV QW x 2 weeks): 8.47%
tumour volume compared to vehicle alone (VcaP tumour cells; 5 mg/kg): no significant difference
ΔTGI (Study Day 17) (VcaP tumour cells; 5 mg/kg IV QW x 2 weeks): 12.44%

CNCc1cnc2ccc(-c3ccc(F)c(F)c3OCCc3c(C(O)C(C)(C)C)nn(C)c3C)cn12 (single isomer, unassigned) [Example 12, 1-(4-(2-(2,3-difluoro-6-(3-((methylamino)methyl)imidazo[1,2-a]pyridin-6-yl)phenoxy)ethyl)-1,5-dimethyl-1H-pyrazol-3-yl)-2,2-dimethylpropan-1-ol]
tumour volume compared to vehicle (DOHH-2 tumor cells; [3]): significant reduction in tumour volume or reduced growth in tumour volume
IC50 (human NMT1 (HsNMT1)): 2.1 nM
tumour size [1]: reduced tumour size
body weights [2]: decreased significantly

Cc1c(CCOc2c(-c3ccc4ncc(CN)n4c3)ccc(F)c2F)c(C(O)C(C)(C)C)nn1C (stereo not shown) [Example 17, 1-(4-(2-(6-(3-(aminomethyl)imidazo[1,2-a]pyridin-6-yl)-2,3-difluorophenoxy)ethyl)-1,5-dimethyl-1H-pyrazol-3-yl)-2,2-dimethylpropan-1-ol]
IC50 (human NMT1 (HsNMT1)): 2 nM

sacituzumab
tumour volume compared to vehicle alone (JIMT-1 tumour cells; 2.5 mg/kg): no significant difference
tumour volume compared to vehicle alone (JIMT-1 tumour cells; 5 mg/kg): significant decrease in tumour volume

sacituzumab govitecan [reference compound]
tumour volume compared to vehicle alone (JIMT-1 tumour cells; 2.5 mg/kg): significant decrease in tumour volume
tumour volume compared to vehicle alone (JIMT-1 tumour cells; 5 mg/kg): significant decrease in tumour volume

B1: ifinatamab-DXd (conjugate, chains of the INN, looked up)
VH: QVQLVQSGAEVKKPGSSVKVSCKASGYTFTNYVMHWVRQAPGQGLEWMGYINPYNDDVKYNEKFKGRVTITADESTSTAYMELSSLRSEDTAVYYCARWGYYGSPLYYFDYWGQGTLVTVSS
VL: EIVLTQSPATLSLSPGERATLSCRASSRLIYMHWYQQKPGQAPRPLIYATSNLASGIPARFSGSGSGTDFTLTISSLEPEDFAVYYCQQWNSNPPTFGQGTKVEIK
modifications: deruxtecan (DXd) payload
effect on LNCaP tumour volume compared to vehicle (LNCaP tumour cells; 5 mg/kg): slowed the growth of LNCaP tumours to a lesser extent
Day 28 tumour volume (mm^3, mean ± SEM) (LNCaP tumour cells; 5 mg/kg): 364.6 ± 51.7 mm^3
Tumour growth inhibition (TGI, %) (LNCaP tumour cells; 5 mg/kg): 58.8%
effect on LNCaP tumour volume compared to vehicle (LNCaP tumour cells; 10 mg/kg): significantly reduced the mean volume
Day 28 tumour volume (mm^3, mean ± SEM) (LNCaP tumour cells; 10 mg/kg): 259.5 ± 50.3 mm^3
Tumour growth inhibition (TGI, %) (LNCaP tumour cells; 10 mg/kg): 75.0%
tumour volume compared to vehicle alone (VcaP tumour cells; 2.5 mg/kg): no significant difference
ΔTGI (Study Day 17) (VcaP tumour cells; 2.5 mg/kg IV QW x 2 weeks): 5.24%
tumour volume compared to vehicle alone (VcaP tumour cells; 5 mg/kg): significantly higher tumour volume
ΔTGI (Study Day 17) (VcaP tumour cells; 5 mg/kg IV QW x 2 weeks): 2.86%
